From patent publication US7786257B2, “Signal-1/signal-2 bifunctional peptide inhibitors” (priority 2000, dated 2010)
Where no end group is shown, it is not given here. [ ]: non-standard residue; d: D form. Ahx = NCCCCCC(=O)O

Legend:
T-cells from NOD mice = test: ELISPOT of IL-4 and IFN-γ release by T-cells from treated NOD mice (TH1/TH2 frequency); format: in vivo, mouse
From the text: Groups of 3-5 NOD mice were immunized subcutaneously (s.c.) with the GAD 65 peptide in CFA (40 nanomoles/mouse) at the tail base. Different groups received either the EGAD-BPI, its single TCR epitope (Signal-1 moiety), or its CD11a peptide (Signal-2 moiety) i.v. (all 40 nanomoles/mouse). After 6-8 days, another identical 40 nanomole injection was given to each mouse, and the next day lymph nodes draining the site of the s.c. injection were made into single cell suspensions for culture. Identical primary cultures were incubated for 96 hours; then, viable T-cells were recovered by density gradient centrifugation. One million of these cells were combined in nitrocellulose-bottomed 96-well plates (Millititer-HA, Millipore, Bedford, Mass.), previously coated (50 μl/well) with mAb to either mouse IFNγ (clone R4-6A2), or mouse IL-4 (clone BVD4-1D11) at a concentration of 10 μg/ml in PBS. Groups of triplicate cultures were incubated with either Concanavalin-A (2 μg/ml), or the Signal-1 peptide moiety plus 20 U/ml recombinant IL2 (R & D Systems). After 72-96 hours of culture at 37° C. and 5% CO2, plates were washed three times with PBS-0.05% Tween-20. In appropriate wells are added biotinylated anti-IFNγ (clone XMG1.2) or biotinylated anti-IL-4 (clone BVD6-24G2) at a concentration of 1 μg/ml and incubated for 1 hour at room temperature. Positive control wells receive known TH1 or TH2 clones in place of normal T-cells. MAb pairs to IL12, IL10, and IL2 are also available and will be used to test for these cytokines in the same assay. All mAb and recombinant controls are purchased from PharMingen (San Diego, Calif.). Finally, plates were washed three times with PBS-Tween, and then exposed to 100 μl of a 1:2000 dilution of streptavidin alkaline phosphatase (Jackson ImmunoResearch, West Grove, Pa.) for 1 h and washed as before. […]

NOD.Scid mice = test: NOD.Scid adoptive transfer model of diabetes progression (blood glucose); format: in vivo, mouse; details: 7 weeks post adoptive transfer; CD4+ T-cells from treated mice co-transferred with CD25-depleted inducer cells
Experimental: In another example which tested the diabetes BPI in vivo, 15 million disease-linked lymphocytes (i.e., patient T-cells, or T-cell populations linked to the disease process) were injected with or without T-cells that received the BPI compound (in vivo or in vitro) and were expanded for 24 hours in recombinant IL-2. […] For blocking spontaneous diabetes, five groups of ten female NOD mice (12 weeks of age) were used and monitored for nondiabetic blood glucose levels with a standard glucometer (AccuChek-complete, Roche Diagnostic). Each mouse was labeled and individually monitored for blood glucose levels weekly for the course of the experiment. The five groups received either (a) intravenous (i.v.) injection of the BPI (100 μg in 100 μl endotoxin-free saline/injection) at 8 weeks of age, (b) same dose GAD65 (208-217) epitope alone, (c) same dose CD11a (237-247) peptide alone, or (d) saline alone.
NOD spleen cells from 8 week (non-diabetic) females were used to enrich a CD25-/CTLA4-depleted population by treatment with purified monoclonal antibody (mAb 7D4, PharMingen) followed by low-tox rabbit complement (Cedarlane) (80% depletion of CTLA4+ cells by flow analysis with PE-labeled UC10-4F10-11 mAb; not shown). […] In vitro clonal expansion was with either recombinant IL-2 (R&D systems), or ConA, as described for the ELISPOT experiments. […]

With “GAD65(208-217)-[Ac-G-Ac-G-Ac]-CD11a (237-247) (EIAPVFVLLE[Ahx]G[Ahx]G[Ahx]ITDGEATDSG) [EGAD-BPI]” the IFN-γ production (T-cells from NOD mice; T-cells from treated animals stimulated in vitro with mitogen) was “also increased, although to a lesser extent”, the IL-4 production increase (T-cells from NOD mice; T-cells from treated animals stimulated in vitro with mitogen, versus saline control, 40 nanomoles/mouse i.v. twice) was “approximately 10 fold” and the IL-4 production (T-cells from NOD mice; treated NOD mice versus control mice) was “abundant IL-4”. For the same substance, the “mice showing hyperglycemia and progression to diabetes” value (NOD.Scid mice) was 40%.
